Article PMC6147116 (Journal of Enzyme Inhibition and Medicinal Chemistry, 2018)
Where two headings read alike, the source gives them in different places.

Key:
[1] = target: T1, 17β-hydroxysteroid dehydrogenase type 1 (17β-HSD1) (Homo sapiens, UniProt P14061); assay: 17β-HSD1 inhibition, in vitro radiosubstrate incubation (E1 to E2), human placental cytosol; Dixon kinetic analysis; assay type: biochemical; conditions: for IC50: E1 substrate 1.0 µM, NADPH excess, read-out: 17β-HSD1 IC50 ± SD; for 17β-HSD1 inhibition mechanism: Dixon's plot; for 17β-HSD1 inhibition mechanism / Ki: cofactor excess; for Ki: from Dixon plot
T1 sequence (P14061 1-328): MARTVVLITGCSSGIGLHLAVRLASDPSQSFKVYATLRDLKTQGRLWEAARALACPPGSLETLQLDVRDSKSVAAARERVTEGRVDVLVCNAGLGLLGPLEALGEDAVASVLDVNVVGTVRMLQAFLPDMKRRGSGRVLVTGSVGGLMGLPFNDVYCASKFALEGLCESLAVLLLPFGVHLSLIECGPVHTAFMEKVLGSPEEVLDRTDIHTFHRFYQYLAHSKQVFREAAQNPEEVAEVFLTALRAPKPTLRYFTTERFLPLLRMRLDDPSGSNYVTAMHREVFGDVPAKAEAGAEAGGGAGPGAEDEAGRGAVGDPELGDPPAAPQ
Experimental: (§1) Enzyme inhibition studies were performed by in vitro radiosubstrate incubations using human term placenta cytosol and microsomas as enzyme sources. […] Relative conversions compared to non-inhibited controls (100%) were measured in the presence of 10 µM concentration of the test compound. […] Mechanistic and kinetic investigations were performed and inhibitory constants (Ki) were determined for selected compounds.
Inhibitors that bind to the steroid site of 17β-HSD1 can bind to both the free enzyme and the binary enzyme–cofactor complex by random kinetic mechanism.
(§2) Enzymatic incubations were carried out in the HEPES buffer medium at a final volume of 200
(§3) µl. The substrate was added to the incubate in 20 µl of a 25 v/v% propylene glycol in HEPES buffer solution, whereas test compounds were applied in 10 µl of dimethyl sulfoxide solution.
(§4) Incubations were performed at 37 °C and terminated by cooling and the addition of organic solvents of the subsequent extraction procedure. Control samples with no inhibitor and blank samples were incubated simultaneously. […]
The incubation time was 2.5 min. The product 17β-estradiol (E2, 5) was extracted with ethyl acetate and isolated by a TLC method (details are published in our earlier reference).
(§5) In the general procedure, incubations were performed as described. Concentrations of the substrates were 1.0 µM, and the test compounds were applied at 10 µM final concentration in the incubate. Relative conversions compared to non-inhibited controls (100%) were determined. The assays were performed in triplicate, and the mean value and the standard deviation (SD) were calculated. […]
(§6) these cases, conversions were measured at 10–15 different concentrations in the appropriate interval between 0.001–50 µM. IC50 results were calculated by using unweighted iterative least squares logistic curve fitting by means of the “absolute IC50 calculation“ function of the GraphPad Prism 4.0 software (GraphPad Software, Inc., San Diego, CA, USA).
(§7) Kinetic analyses were performed via measurement of the enzymatic transformation using different fixed substrate concentrations and varied inhibitor concentrations. The Dixon’s linear transformation (1/velocity vs. inhibitor concentration) was applied for evaluation and the inhibition constant (Ki) was determined from abscissa of intersection of the lines of different substrate concentrations. Mechanism of binding was identified according to the Dixon’s graphs and the secondary plot of slopes of the Dixon’s lines vs. 1/substrate […]
The inhibitor compounds were preincubated with the appropriate placenta fraction in a volume of 4.0 µl at 37 °C for various time periods (2.5-40 min). Following this procedure, samples were diluted with the incubation medium to 50-fold. Enzyme activity measurements

[2] = target: T2, human aromatase (Homo sapiens, UniProt P11511); assay: Aromatase inhibition, in vitro radiosubstrate incubation (testosterone to E2 conversion), human placental microsomes; assay type: biochemical; conditions: for remaining activity at 10 µM: 10 µM test compound, non-inhibited control 100%, mean ± SD, n = 3, read-out: Arom Rel.conv. ± SD
T2 construct: from tissue; host or cells: human term placenta, microsomal fraction
T2 sequence (P11511 1-503): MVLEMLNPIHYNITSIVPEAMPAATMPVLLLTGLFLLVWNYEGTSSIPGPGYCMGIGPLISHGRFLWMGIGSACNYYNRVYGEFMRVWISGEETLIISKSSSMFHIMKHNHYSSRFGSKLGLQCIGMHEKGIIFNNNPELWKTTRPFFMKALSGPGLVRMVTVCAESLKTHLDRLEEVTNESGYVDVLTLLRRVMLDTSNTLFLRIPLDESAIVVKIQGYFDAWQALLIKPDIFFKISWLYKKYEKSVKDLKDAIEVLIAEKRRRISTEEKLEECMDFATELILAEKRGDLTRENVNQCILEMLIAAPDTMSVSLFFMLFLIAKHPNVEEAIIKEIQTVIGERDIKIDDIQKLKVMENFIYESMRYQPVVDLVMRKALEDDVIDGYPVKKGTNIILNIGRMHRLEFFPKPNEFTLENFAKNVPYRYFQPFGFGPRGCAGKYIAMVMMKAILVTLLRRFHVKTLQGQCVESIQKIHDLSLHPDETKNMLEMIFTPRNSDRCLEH
Experimental: as §1, §2, §3
Incubations were performed at 37 °C and terminated by cooling and the addition of organic solvents of the subsequent extraction procedure. Control samples with no inhibitor and blank samples were incubated simultaneously. The radioactivity of the products formed was measured by means of liquid scintillation counting (LSC) and taken as indicator of the […]
In the aromatase assays the microsoma suspension was incubated with appropriate concentration of unlabelled testosterone (2) substrate spiked with [1,2,6,7-3H]testosterone tracer, and in the presence of 0.1 mM NADPH cofactor excess. (In this case, solution of the substrate was prepared with acetonitrile instead of propylene glycol.) Incubation time was 40 min. The incubation mixture was extracted with toluene, then the toluene phase was drained and washed with HEPES buffer. Aromatase products containing phenolic hydroxy group were extracted with 1.2 M sodium hydroxide solution from the toluene extract and the alkaline phase was measured in the LSC. […]
was extracted with toluene. […]
as §5, §6
Kinetic analyses were performed via measurement of the enzymatic transformation using different fixed substrate concentrations and varied inhibitor concentrations. The Dixon’s linear transformation (1/velocity vs. inhibitor concentration) was applied for evaluation and the inhibition constant (Ki) was determined from abscissa of intersection of the lines of different substrate concentrations. Mechanism of binding was identified according to the […]

[3] = target: aromatase enzyme; design: method as in PMID 16039845; conditions: cited from earlier work
[4] = target: T3, steroid sulfatase (STS) (Homo sapiens, UniProt P08842); assay: STS inhibition, in vitro radiosubstrate incubation (release of E1 from E1S), human placental microsomes; Dixon kinetic analysis; assay type: biochemical; conditions: for STS inhibition mechanism: Dixon's plots; for Ki: from Dixon plot; for remaining activity at 10 µM: 10 µM test compound, non-inhibited control 100%, mean ± SD, n = 3, read-out: STS Rel.conv. ± SD
T3 construct: from tissue; host or cells: human term placenta, microsomal fraction
T3 sequence (P08842 22-583): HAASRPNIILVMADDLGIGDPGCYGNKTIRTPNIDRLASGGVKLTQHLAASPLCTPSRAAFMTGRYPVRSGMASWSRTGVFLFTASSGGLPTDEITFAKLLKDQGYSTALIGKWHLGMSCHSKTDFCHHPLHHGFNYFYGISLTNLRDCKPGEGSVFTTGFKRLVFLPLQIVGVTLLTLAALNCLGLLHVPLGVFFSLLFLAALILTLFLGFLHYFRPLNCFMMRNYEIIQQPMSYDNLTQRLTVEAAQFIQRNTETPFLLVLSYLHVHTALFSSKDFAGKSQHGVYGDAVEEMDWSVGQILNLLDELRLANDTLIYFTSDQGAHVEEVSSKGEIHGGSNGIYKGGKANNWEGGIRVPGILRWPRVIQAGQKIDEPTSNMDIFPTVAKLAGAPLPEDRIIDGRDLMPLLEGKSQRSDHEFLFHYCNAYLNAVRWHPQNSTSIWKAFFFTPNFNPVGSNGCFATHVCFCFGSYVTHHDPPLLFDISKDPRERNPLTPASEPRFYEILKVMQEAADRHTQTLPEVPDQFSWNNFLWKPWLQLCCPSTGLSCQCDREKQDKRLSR
Experimental: as §1
Kinetic analyses of selected compounds 7a and 16c were performed by measurement of enzyme activities using different fixed substrate concentrations and varied inhibitor concentrations.
as §2, §3, §4
The incubation time was 2.5 min. […]
as §5, §6, §7
The inhibitor compounds were preincubated with the appropriate placenta fraction in a volume of 4.0 µl at 37 °C for various time periods (2.5-40 min). Following this procedure, […]

[5] = target: T3, steroid sulfatase (STS); assay: STS inhibition reversibility test (preincubation with placental microsomes, 50-fold dilution); assay type: biochemical; conditions: preincubation 7a 1.5 μM, 16c 10 μM; for STS binding reversibility: 50-fold dilution, 20 min secondary incubation
[6] = target: T1, 17β-hydroxysteroid dehydrogenase type 1 (17β-HSD1); conditions: earlier paper of the authors; read-out: 17β-HSD1 IC50 ± SD; cited from earlier work
[7] = target: T4, 17β-HSD1 (Homo sapiens, UniProt P14061); assay: 17β-HSD1 inhibition reversibility test (preincubation with placental cytosol, 50-fold dilution); assay type: biochemical; conditions: preincubation 10 μM, 2.5 and 20 min
T4 construct: from tissue; host or cells: human term placenta, cytosolic fraction
T4 sequence (P14061 1-328): T1 sequence (P14061 1-328)
Experimental: as §6, §7
The inhibitor compounds were preincubated with the appropriate placenta fraction in a volume of 4.0 µl at 37 °C for various time periods (2.5-40 min). Following this procedure, samples were diluted with the incubation medium to 50-fold. Enzyme activity measurements were started immediately for the 17β-HSD1 and after 20 min secondary incubation time to allow dissociation in the case of STS. […]

[8] = E1S substrate 1.0 µM, read-out: STS IC50 ± SD

Row | Structure (SMILES) | IC50 [1] | IC50 [2] | IC50 [4, 8] | remaining activity at 10 µM [2] | IC50 [6] | further results
1 | C[C@]12CC[C@@H]3c4cc(Cl)c(O)cc4CC[C@H]3[C@@H]1CCC2=O [6c, 2-Chloroestrone] | 180 ± 20 nM | 6000 ± 1200 nM | 2400 ± 400 nM |  |  | Ki [3]: 130 nM; enhancement in affinity to aromatase compared to E1 [3]: ~20 fold
2 | C[C@]12CCC[C@H]1[C@@H]1CCc3c(cc(Cl)c(O)c3Cl)[C@H]1CC2 [16c, 2,4-bis-chloro-17-deoxy-13α-estrone] |  |  | 1300 ± 400 nM | 82 ± 12% |  | 17β-HSD1 Rel.conv. ± SD ([1]; 10 µM test compound, non-inhibited control 100%, mean ± SD, n = 3): 53 ± 2%; time in which irreversible binding to STS is nearly completed [5]: ≤ 2.5 min; STS binding reversibility [5]: irreversible; STS inhibition mechanism [4]: competitive; Ki [4]: 1900 nM
3 | C[C@]12CC[C@@H]3c4cc(Br)c(O)cc4CC[C@H]3[C@@H]1CCC2=O [6b, 2-Bromoestrone] | 95 ± 31 nM | 8700 ± 2800 nM | 2000 ± 400 nM |  |  | IC50 [3]: 2400 nM
4 | C[C@]12CC[C@@H]3c4ccc(O)cc4CC[C@H]3[C@@H]1CCC2=O [E1 (4), estrone, reference compound] |  | > 10000 nM |  | 78% |  | Ki [3]: 2500 nM; IC50 [4]: 24000 ± 10000 nM
5 | C[C@@]12CC[C@@H]3c4cc(I)c(O)c(I)c4CC[C@H]3[C@@H]1CCC2=O [12a] | 1000 nM |  | 2400 ± 500 nM | 91 ± 1% | 380 ± 80 nM | 17β-HSD1 inhibition mechanism [1]: competitive; Ki [1]: 940 nM; 17β-HSD1 binding reversibility [7]: reversible
6 | C[C@@]12CC[C@@H]3c4ccc(O)c(I)c4CC[C@H]3[C@@H]1CCC2=O [11a] | 380 nM |  | 6000 ± 1600 nM | 90 ± 7% | 1000 ± 300 nM | 17β-HSD1 inhibition mechanism [1]: competitive; Ki [1]: 2200 nM; 17β-HSD1 binding reversibility [7]: reversible
7 | C[C@@]12CC[C@@H]3c4ccc(O)c(Br)c4CC[C@H]3[C@@H]1CCC2=O [11b] |  |  | 8500 ± 3100 nM | 78 ± 1% | 2100 ± 1200 nM | 
8 | C[C@]12CC[C@@H]3c4ccc(O)c(I)c4CC[C@H]3[C@@H]1CCC2=O [7a, 4-iodoestrone] | 360 ± 250 nM |  | 230 ± 90 nM | 88 ± 2% |  | time in which irreversible binding to STS is nearly completed [5]: ≤ 2.5 min; STS binding reversibility [5]: irreversible; STS inhibition mechanism [4]: competitive; Ki [4]: 360 nM; STS affinity higher compared to the E1S substrate ([4]; from IC50 values): 22 fold; STS affinity increased compared to E1 ([4]; from IC50 values): 100 fold
9 | C[C@@]12CC[C@@H]3c4cc(Br)c(O)cc4CC[C@H]3[C@@H]1CCC2=O [10b] |  |  |  | 100 ± 5% | 1200 ± 300 nM | remaining activity at 10 µM [4]: 81 ± 6%
10 | C[C@@]12CC[C@@H]3c4cc(Br)c(O)c(Br)c4CC[C@H]3[C@@H]1CCC2=O [12b] |  |  |  | 108 ± 11% | 2700 ± 100 nM | remaining activity at 10 µM [4]: 71 ± 4%
